According to article PMC4289246, “Dose-dependent effects of lesogaberan on reflux measures in patients with refractory gastroesophageal reflux disease: a randomized, placebo-controlled study” (BMC Gastroenterology, 2014):

How the values were obtained:
[1] = test system: patients with GERD who had a partial response to PPI treatment; assay: Safety and tolerability assessments; format: in vivo, human
Procedure: Sitting and orthostatic blood pressure and pulse rate were also assessed pre-dose and 2 h after the first dose of lesogaberan or placebo at each treatment visit. Patients ate meals (standardized primarily according to fat content and pH) approximately 1 h after each dose of study medication or placebo, and at the same time points during each study period. Patients were monitored for adverse events from the first dose administration until the follow-up visit 5–10 days after receiving the last dose. The active treatment period for each dose was defined as the time from the first dose of study drug to 24 h after the second dose of study drug in each treatment period. Patients also underwent active questioning to determine whether they experienced syncope, or feeling faint, lightheadedness, dizziness or paraesthesia before study treatment started and after removing the impedance–pH catheter. A 12-lead digital electrocardiogram (ECG) was scheduled at the screening visit, before and 2 h after the first dose of lesogaberan or placebo at each treatment visit, and at the follow-up visit. Blood and urine samples were taken at the pre-entry visit (full laboratory screen), and before and 24 h after the first dose of lesogaberan or placebo at each treatment visit (reduced laboratory screen) to assess clinical chemistry and haematology, and to screen for indications of drug abuse.
The efficacy evaluation of the different doses of lesogaberan was based on data from all patients not affected by major protocol deviations and violations relevant to the analysis of a specific variable. The safety analysis set comprised all patients who received at least one dose of lesogaberan or placebo, and for whom post-dose data were available.

[2] = test system: patients with GERD who have a partial response to PPI therapy; design: method as in PMID 20451523; details: 65 mg twice daily, partial responders to PPI therapy; cited from earlier work
[3] = test system: patients with a partial response to PPI treatment; design: method as in PMID 21402616; details: 65 mg twice daily add-on to PPIs, phase 2a; placebo 8%; cited from earlier work
[4] = test system: patients with GERD who had a partial response to PPI treatment; assay: 24-h impedance–pH measurement of reflux variables, crossover vs placebo; format: in vivo, human; details: for Difference in geometric mean, number of reflux episodes in supine position / Difference in geometric mean, number of reflux episodes in upright position / Difference in geometric mean, number of weakly acid reflux episodes / Difference in geometric mean, number of acid reflux episodes / Difference in geometric mean, number of mixed gas/liquid reflux episodes / Difference in geometric mean, number of pure liquid reflux episodes / Difference in geometric mean, proportion of time with esophageal pH < 4 / Difference in geometric mean, proportion of time with intragastric pH < 4 / Difference in geometric mean, proximal extent of reflux (cm) / Difference in geometric mean, total number of reflux episodes: relative to placebo; for Difference in geometric mean, number of weakly acid reflux episodes: pH 4.0–6.5; for Difference in geometric mean, number of weakly acid reflux episodes / Difference in geometric mean, number of acid reflux episodes / Difference in geometric mean, number of mixed gas/liquid reflux episodes / Difference in geometric mean, number of pure liquid reflux episodes / Difference in geometric mean, proportion of time with esophageal pH < 4 / Difference in geometric mean, proportion of time with intragastric pH < 4 / Difference in geometric mean, proximal extent of reflux (cm) / Difference in geometric mean, total number of reflux episodes: upright or supine; for Difference in geometric mean, number of acid reflux episodes: pH < 4
Procedure: This was a randomized, double-blind, placebo-controlled, four-way crossover, phase 2a study. Patients were randomized to receive one of 10 treatment sequences each consisting of placebo and three of the four different lesogaberan doses (30, 90, 120 and 240 mg). These were given on different days, each separated by a 7–28-day washout period. […] Each dose was given twice over a 24-h period in the form of modified-release capsules: one taken 1 h before breakfast after fasting the night before, and the other taken 1 h before dinner. (Note that patients fasted overnight before each study period: no food after 22:00 and no fluids after 24:00.) Treatment with patients’ usual, regular and optimized dose of PPI was continued throughout the study.
Impedance–pH measurements were taken for 24 h after the first administration of each dose using a Sleuth® multichannel intraluminal impedance ambulatory system (Sandhill Scientific, Inc., Highlands Ranch, CO, USA). This device includes a data logger, impedance–pH amplifiers, and a catheter consisting of two antimony pH sensors (calibrated before and after recordings were taken using standard pH 7 and pH 1 buffers) placed 5 cm above and 10 cm below the lower esophageal sphincter (LES) and eight impedance electrodes placed 2, 4, 6, 8, 10, 14, 16 and 18 cm above the LES. The electrodes are paired to measure impedance at 3, 5, 7, 9, 15 and 17 cm above the LES. The position of the LES was located by a manometric recording before the study medication or placebo was given.
Impedance–pH readings were analysed by one investigator (JP) using dedicated software (BioVIEW Analysis®, version 5.5.4; Sandhill Scientific Inc.) and were then checked manually. This was performed in a blinded manner and the results were used to determine the number of reflux episodes, defined as a period when impedance decreased to less than 50% of baseline (liquid episode) or increased to more than 150% of baseline (gas episode), propagating […] from the most distal channel. Acid, weakly acid and non-acid reflux episodes were defined as episodes lasting longer than 5 s with a pH of < 4, 4.0–6.5 and > 6.5, respectively. The decision to use a cautious cut-off pH of 6.5 was taken in order to ensure that no measurements near to a pH of 7 would be erroneously categorized as weakly acidic. These definitions have previously been employed for studies of this type. During the 24-h period of ambulatory impedance–pH measurement, patients used a data logger and a diary card to record their meal intake and periods in supine position, as well as any GERD symptoms.
The effect of each dose of lesogaberan was measured as the proportional difference, relative to placebo, in the geometric mean of the reflux variables assessed over 24 h. The analysis was based on a mixed-effect model with treatment, period and sequence as fixed effects and patient as a random effect. Geometric means and relative differences in geometric means were reported with 95% CIs. A p value of < 0.05 was considered to indicate statistical significance and no corrections for multiple testing were performed. Multiplicity was accounted for by using a step-down sequential procedure comparing lesogaberan doses with placebo, starting at a 240 mg dose and, in the event of rejection of the null hypothesis, comparison of descending doses.

[5] = test system: partial responders to PPI treatment; design: method as in earlier work; details: cited from earlier work
[6] = 2 h after first dose, 30–240 mg
[7] = 30 mg twice in 24 h, add-on to PPI
[8] = 90 mg twice in 24 h, add-on to PPI
[9] = 120 mg twice in 24 h, add-on to PPI
[10] = 240 mg twice in 24 h, add-on to PPI

NC[C@@H](F)C[PH](=O)O [lesogaberan, (R)-(3-amino-2-fluoropropyl) phosphinic acid]
adverse events during active dosing ([1]; 90 mg twice in 24 h): one patient reported headache and nausea | ECG readings ([1]; 12-lead ECG before and 2 h after first dose): No clinically significant changes in ECG readings | adverse events resulting in discontinuation ([1]; 30–240 mg twice in 24 h): no adverse events resulted in discontinuation | serious adverse events during active dosing periods ([1]; 30–240 mg twice in 24 h, safety analysis set n = 27): No serious adverse events were reported | blood pressure compared with placebo [1, 6]: slight decreases in blood pressure | pulse rate compared with placebo [1, 6]: Slight increases in pulse rate | reduction in the mean number of total reflux episodes relative to placebo [2]: approximately 35% | proportion of responders (max one 24-h period with heartburn and/or regurgitation of not more than mild intensity during last 7 treatment days) [3]: 16% | Difference in geometric mean, number of reflux episodes in supine position [4, 7]: -37.3% | Difference in geometric mean, number of reflux episodes in upright position [4, 7]: -25.2% | Difference in geometric mean, number of weakly acid reflux episodes [4, 7]: -28.3% | Difference in geometric mean, number of acid reflux episodes [4, 7]: -34.7% | Difference in geometric mean, number of mixed gas/liquid reflux episodes [4, 7]: -25.0% | Difference in geometric mean, number of pure liquid reflux episodes [4, 7]: -27.9% | Difference in geometric mean, proportion of time with esophageal pH < 4 [4, 7]: -69.8% | Difference in geometric mean, proportion of time with intragastric pH < 4 [4, 7]: +40.4% | Difference in geometric mean, proximal extent of reflux (cm) [4, 7]: -39.1% | Difference in geometric mean, total number of reflux episodes [4, 7]: -26.2% | reduction in the mean number of pure liquid reflux episodes relative to placebo [4, 8]: 53.0% | reduction in the mean number of total reflux episodes relative to placebo [4, 8]: approximately 37% | Difference in geometric mean, number of reflux episodes in supine position [4, 8]: -12.3% | Difference in geometric mean, number of reflux episodes in upright position [4, 8]: -38.4% | Difference in geometric mean, number of weakly acid reflux episodes [4, 8]: -31.4% | Difference in geometric mean, number of acid reflux episodes [4, 8]: -45.5% | Difference in geometric mean, number of mixed gas/liquid reflux episodes [4, 8]: -28.3% | Difference in geometric mean, number of pure liquid reflux episodes [4, 8]: -53.0% | Difference in geometric mean, proportion of time with esophageal pH < 4 [4, 8]: -56.1% | Difference in geometric mean, proportion of time with intragastric pH < 4 [4, 8]: +23.7% | Difference in geometric mean, proximal extent of reflux (cm) [4, 8]: -58.9% | Difference in geometric mean, total number of reflux episodes [4, 8]: -37.0% | reduction in the mean number of pure liquid reflux episodes relative to placebo [4, 9]: 44.1% | Difference in geometric mean, number of reflux episodes in supine position [4, 9]: -31.2% | Difference in geometric mean, number of reflux episodes in upright position [4, 9]: -46.1% | Difference in geometric mean, number of weakly acid reflux episodes [4, 9]: -44.5% | Difference in geometric mean, number of acid reflux episodes [4, 9]: -57.9% | Difference in geometric mean, number of mixed gas/liquid reflux episodes [4, 9]: -42.5% | Difference in geometric mean, number of pure liquid reflux episodes [4, 9]: -44.1% | Difference in geometric mean, proportion of time with esophageal pH < 4 [4, 9]: -65.7% | Difference in geometric mean, proportion of time with intragastric pH < 4 [4, 9]: +3.6% | Difference in geometric mean, proximal extent of reflux (cm) [4, 9]: -66.3% | Difference in geometric mean, total number of reflux episodes [4, 9]: -45.0% | reduction in the mean number of pure liquid reflux episodes relative to placebo [4, 10]: 51.9% | Difference in geometric mean, number of reflux episodes in supine position [4, 10]: -69.1% | Difference in geometric mean, number of reflux episodes in upright position [4, 10]: -50.7% | Difference in geometric mean, number of weakly acid reflux episodes [4, 10]: -45.1% | Difference in geometric mean, number of acid reflux episodes [4, 10]: -57.1% | Difference in geometric mean, number of mixed gas/liquid reflux episodes [4, 10]: -56.7% | Difference in geometric mean, number of pure liquid reflux episodes [4, 10]: -51.9% | Difference in geometric mean, proportion of time with esophageal pH < 4 [4, 10]: -73.0% | Difference in geometric mean, proportion of time with intragastric pH < 4 [4, 10]: +27.7% | Difference in geometric mean, proximal extent of reflux (cm) [4, 10]: -63.3% | Difference in geometric mean, total number of reflux episodes [4, 10]: -52.8% | effect on mean number of pure gas reflux episodes relative to placebo ([4]; 30, 90, 120, 240 mg twice in 24 h, data not shown): No significant effect | effect on mean number of non-acid reflux episodes relative to placebo ([4]; 30, 90, 120, 240 mg twice in 24 h, pH > 6.5, data not shown): No significant effect | reduction relative to placebo in the mean number of reflux episodes, supine position ([4]; highest dose (240 mg) twice in 24 h, add-on to PPI): 69.1% | effect on GERD symptoms ([5]; 240 mg, phase 2b, partial responders to PPI treatment): does not have a clinically important effect on GERD symptoms | patients with reversible elevated alanine transaminase levels >5 times the upper limit of normal ([5]; phase 2b study): 6 patients
